Laboratory results as given in patent US7803377B2, “Anti-DLL4 antibodies and methods using same” (Genentech, Inc., priority 2006, dated 2010).
pIC50: −log10 of the molar value.

Legend:
[1] = system: human melanoma MDA-MB-435; experiment: Tumor model MDA-MB-435 (mammary fat pad); assay type: in vivo, mouse; conditions: treatment started 14 days post tumor cell injection
Experimental: (§1) Tumor models. Beige nude female mice of 8- to 10-week-old were used. To obtain subcutaneous tumors, mice were injected with 0.1 ml cell suspension containing 50% matrigel (BD Bioscience) into the right posterior flank. 5×10^6 human colon cancer HM7 cells, 10×10^6 human colon carcinoma Colo205 cells, 10×10^6 human lung carcinoma Calu6 cells, 10×10^6 human lung carcinoma MV-522 cells, 10×10^6 mouse leukemia WEHI-3 cells, 10×10^6 mouse lymphoma EL4 cells, 10×10^6 human ovarian cancer SK-OV-3 X1 cells, 10×06 mouse lung cancer LL2 cells, 10×10^6 leukemia/lymphoma EL4 cells, or 10×10^6 non-small lung cancer H1299 cells were injected into each mouse. For human melanoma MDA-MB-435 model, mice were injected into the mammary fat pad with 0.1 ml cell (5×10^6) suspension containing 50% matrigel. […] For the following tumor models, each test mouse received a subcutaneous tumor fragment (1 mm^3) implanted in the right flank: non-small lung cancer SKMES-1, human breast cancer MX-1, human colorectal cancer SW620 and human adenocarcinoma LS174T. The tumor growth was quantitated by caliper measurements. Tumor volume (mm^3) was determined by measuring the length (l) and width (w) and calculating the volume (V=lw2/2). 10 to 15 animals were included in each group. Statistical comparison of treatment groups was performed using two-tailed Student's t-test. […]

[2] = system: human colon carcinoma Colo205 cells; experiment: Tumor model Colo205; assay type: in vivo, mouse
Experimental: as §1

[3] = molecular target: DLL4 (Homo sapiens, UniProt Q9NR61); experiment: Notch ligand: Notch blocking ELISA (DLL4-AP / DLL4-His binding to coated rNotch1); set-up: amino acid 1-404 of DLL4 fused to human placenta alkaline phosphatase; made in house; host or cells: 293 cells, conditioned medium (DLL4-AP); conditions: purified DLL4-His, read-out: calculated IC50, blocking the binding of DLL4-His to coated rNotch1
DLL4, sequence (Q9NR61 27-404): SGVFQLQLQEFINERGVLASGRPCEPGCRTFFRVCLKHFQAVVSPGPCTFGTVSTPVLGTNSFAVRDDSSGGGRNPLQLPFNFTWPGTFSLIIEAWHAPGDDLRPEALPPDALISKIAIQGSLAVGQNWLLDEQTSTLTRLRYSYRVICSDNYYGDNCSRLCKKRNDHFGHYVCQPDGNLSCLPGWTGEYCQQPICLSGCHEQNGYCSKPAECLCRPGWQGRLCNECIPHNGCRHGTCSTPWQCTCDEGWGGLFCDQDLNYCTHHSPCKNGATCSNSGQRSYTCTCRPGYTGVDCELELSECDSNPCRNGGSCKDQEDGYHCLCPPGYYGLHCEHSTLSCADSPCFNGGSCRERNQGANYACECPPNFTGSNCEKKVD
Experimental: Conditioned medium containing DLL4-AP (amino acid 1-404 of DLL4 fused to human placenta alkaline phosphatase) was used in the assay. To prepare conditioned medium, 293 cells were transiently transfected with plasmid expressing DLL4-AP with Fugen6 reagent (Roche Molecular Biochemicals). Five days posttransfection, the conditioned medium was harvested, filtered and stored at 4° C. Purified antibodies titrated from 0.15 to 25 μg/ml were preincubated for 1 hr at room temperature with DLL4-AP conditioned medium at a dilution that conferred 50% maximally achievable binding to coated rrNotch1-Fc. The antibody/DLL4-AP mixture was then added to rrNotch1-Fc coated plate for 1 hr at room temperature, after which plates were washed several times in PBS. The bound DLL4-AP was detected using 1-Step PNPP (Pierce) as substrate and OD 405 nm absorbance measurement. […] The bound His-tagged ligands was detected with mouse anti-His mAb (1 μg/ml, Roche Molecular Biochemicals), biotinylated goat-anti-mouse (Jackson ImmunoResearch) and Streptavidin-AP (Jackson ImmunoResearch).

[4] = system: human adenocarcinoma LS174T; experiment: Tumor model LS174T; assay type: in vivo, mouse; conditions: 5 mg/kg, IP, twice weekly after establishment of the tumors
Experimental: as §1

[5] = system: non-small lung cancer H1299 cells; experiment: Tumor model H1299; assay type: in vivo, mouse; conditions: 5 mg/kg, IP, twice weekly after establishment of the tumors
Experimental: as §1

[6] = system: adult retinal vasculature; experiment: Adult mouse retina vasculature (ASMA and isolectin staining); assay type: in vivo; conditions: 8 week-old mice, 10 mg/kg, twice weekly for two weeks
Text: FIG. 8: DLL4-mediated Notch signaling regulated EC differentiation. a, The lumen-like structures (white arrows) formed by HUVECs growing in fibrin gels were lost in the presence of anti-DLL4 antibody or DBZ. Instead, the spouts were highly packed with cells (black arrows). b, Regulation of TGFβ2 by Notch. Quantitative PCR analysis of TGFβ2 expression in response to, Notch blockade in 3-D fibrin gel culture of HUVECs for (7 d) by anti-DLL4 antibody or DBZ (left), or Notch activation in 2-D culture of HUVECs (36 hr) by immobilized DLL4 (right). c, Anti-DLL4 antibody blocks arterial development. Confocal images of neonatal mouse retinas stained with alpha smooth muscle actin (ASMA) and isolectin. Neonatal mice were treated as described in FIG. 1d. d, Confocal images of adult mouse retinas stained with ASMA and isolectin. 8 week-old mice were treated with PBS or anti-DLL4 antibody (10 mg/kg, twice weekly) for two weeks.
(§2) Thus, DLL4/Notch signaling is critical during active angiogenesis, but plays a less important role in normal vessel maintenance.

[7] = system: human colorectal cancer SW620; experiment: Tumor model SW620; assay type: in vivo, mouse; conditions: 5 mg/kg, IP, twice weekly after establishment of the tumors
Experimental: as §1

[8] = Tolerability in tumor-bearing mice; assay type: in vivo, mouse; conditions: 10 mg/kg twice per week for up to 8 weeks
Text: as §2

[9] = system: human lung carcinoma Calu6 cells; experiment: Tumor model Calu6; assay type: in vivo, mouse; conditions: treatment initiated at ≧250 mm^3; 10 mg/kg i.p. twice weekly; two weeks of treatment
Experimental: as §1

[10] = system: human lung carcinoma MV-522 cells; experiment: Tumor model MV-522; assay type: in vivo, mouse; conditions: treatment initiated at ≧250 mm^3
Experimental: as §1

[11] = system: mouse leukemia WEHI-3 cells; experiment: Tumor model WEHI3; assay type: in vivo; conditions: treatment initiated at ≧250 mm^3
Experimental: as §1

[12] = system: VEGFR2; experiment: Real-time quantitative RT-PCR of VEGFR2 expression in HUVECs; assay type: cell-based, human; conditions: 3-D fibrin gel culture of HUVECs (7 d); anti-DLL4 antibody 5 μg/ml, DBZ 0.08 μM
Experimental: RNA extraction and Real-time quantitative RT-PCR. Extraction of total RNA from HUVECs in 2-D culture was done using RNeasy® Mini Kit (Qiagen) as per instructions of the manufacturer. To extract total RNA from HUVECs growing in fibrin gels, fibrin gels were treated with 10× trypsin-EDTA (Gibco) for 5 min to remove the top layer fibroblasts, followed by neutralization with 10% FBS in PBS. The gel clots were then removed from tissue culture wells and subjected to centrifugation (10K for 5 min) in microtubes to remove excessive fluid. The resulting gel “pellets” were lysed with lysis buffer (RNeasy® Mini Kit), and further processed as with HUVECs in 2-D culture. The quality of RNA was assessed using RNA 6000 Nano Chips and the Agilent 2100 Bioanalyzer (Agilent Technologies). Real-time quantitative RT-PCR reactions were done in triplicate using 7500 Real Time PCR System (Applied Biosystems). Human GAPDH was used as reference gene for normalization. The expression levels are expressed as the mean (±SEM) fold mRNA changes relative to control from 3 separate determinations. The forward and reverse primer and probe sequences for VEGFR2, TGFβ2 and GAPDH were as follows.
Therefore, while VEGF can act upstream of DLL4/Notch pathway, DLL4/Notch is capable of fine-tuning the response through negatively regulating VEGFR2 expression.

[13] = system: human ovarian cancer SK-OV-3 X1 cells; experiment: Tumor model SK-OV-3X1; assay type: in vivo, mouse; conditions: 5 mg/kg, IP, twice weekly after establishment of the tumors
Experimental: as §1

Substance: YW26.82: affinity matured anti-DLL4 monoclonal antibody; HVR-H1/H2/H3 SEQ ID NO:1, 8, 9; HVR-L1/L2/L3 SEQ ID NO:10, 11, 18
- tumor growth [1]: inhibited tumors growing in mouse mammary fat pads
- tumor histology: EC density and viable tumor cell content ([2]; anti-DLL4 Mab treated Colo205 tumors): high EC density was associated with low viable tumor cell content
- tumor volume ([2]; treatment initiated at ≧250 mm^3, 10 mg/kg i.p. twice weekly, two weeks of treatment): remained static
- pIC50 [3]: ~8.10
- tumor growth, single agent [4]: inhibited tumor growth alone
- tumor growth, single agent [5]: inhibited tumor growth alone
- impact on adult retinal vasculature [6]: no visible impact on adult retinal vasculature
- tumor growth, single agent [7]: inhibited tumor growth alone
- weight loss or animal death [8]: no apparent weight loss or animal death
- tumor volume [9]: remained static
- tumor growth, single agent [10]: inhibited tumor growth
- tumor growth, combination of YW26.82 and anti-VEGF ([10]; combination with anti-VEGF): most effective
- tumor growth, single agent [11]: significant inhibition of tumor growth
- VEGFR2 expression on Notch blockade [12]: upregulation of VEGFR2
- tumor growth, single agent [13]: inhibited tumor growth alone
